According to patent US10064885B2, “Metabolic gene, enzyme, and flux targets for cancer therapy” (Massachusetts Institute of Technology, priority 2010, dated 2018):

Experiments:
Assay type in all cases: cell-based, human
HCT116 colon carcinoma = assay: Reductive carboxylation by [1-13C]glutamine labeling and GC/MS in HCT116 cells expressing shRNAs
Description: (§1) Cell Culture, Isotopic Labeling, and Hypoxia. All cell lines were cultured in Dulbecco's Modified Eagle Medium (DMEM; Mediatech) containing 10% fetal bovine serum (FBS; Invitrogen) and 100 U/ml penicillin/streptomycin (P/S; Mediatech) unless otherwise mentioned. Cell lines were obtained from ATCC unless otherwise noted. The VC3 glioma cell line was provided by Tim Lautenschlaeger (Ohio State University), MDA-MB-231 and HCT116 cell lines were provided by Ferdinando Chiaradonna (University of Milano-Bicocca), MRC5 cells were provided by Stephen Lippard (MIT), SN12C, ACHN, and 786-O cells were provided by Kevin Courtney and Lew Cantley (Harvard Medical School), and MCF10A cells were provided by Joan Brugge (Harvard Medical School), and Huh7 cells were provided by Mike Hemann (MIT). MCF10A cells were cultured in custom DMEM/F12 (Hyclone) containing 5% horse serum, 20 ng/ml EGF, 10 μg/ml insulin, 100 ng/ml cholera toxin, 0.5 mg/ml hydrocortisone, 100 U/ml penicillin/streptomycin, and labeled/unlabeled glucose and glutamine at 18 mM and 2.5 mM, respectively. PRC3, WT8, pTV, and pTR cell lines were subcloned from the 786-O cell line as previously described (42, 43). For isotopic labeling experiments, cells were cultured in 6 well plates in glucose- and glutamine-free DMEM (Sigma) containing 10% dialyzed FBS (Invitrogen), 100 U/ml P/S, naturally labeled glucose or glutamine, and the appropriate tracer, including [U-^13C5]glutamine (Isotec), [5-^13C]glutamine (C/D/N Isotopes), [1-^13C]glutamine, [U-^13C6]glucose, [1,2-^13C2]glucose (all from Cambridge Isotope Labs). Steady state labeling of organic and amino acids was accomplished by culturing subconfluent cells in tracer medium for 24 hours. […] The internal gas content was monitored using Fyrite gas analyzers (Bacharach) for CO2 and O2. […]
(§2) Metabolite Extraction and Gas Chromatography/Mass Spectrometry (GC/MS) Analysis. […] In some ISA experiments, cells were trypsinized, counted, and pelleted prior to lipid extraction as described above. […]

143B osteosarcoma = assay: Reductive carboxylation by [1-13C]glutamine labeling and GC/MS in 143B cells expressing shRNAs
Description: as §1, with “respectively.” for “respectively. PRC3, WT8, pTV, and pTR cell lines were subcloned from the 786-O cell line as previously described (42, 43). For isotopic labeling experiments, cells were cultured in 6 well plates in glucose- and glutamine-free DMEM (Sigma) containing 10% dialyzed FBS (Invitrogen), 100 U/ml P/S, naturally labeled glucose or glutamine, and the appropriate tracer, including [U-^13C5]glutamine (Isotec), [5-^13C]glutamine (C/D/N Isotopes), [1-^13C]glutamine, [U-^13C6]glucose, [1,2-^13C2]glucose (all from Cambridge Isotope Labs). Steady state labeling of organic and amino acids was accomplished by culturing subconfluent cells in tracer medium for 24 hours.”
as §2

[1] = tested on: MDA-MB-231 breast carcinoma; assay: Reductive carboxylation by [1-13C]glutamine labeling and GC/MS in MDA-MB-231 cells expressing shRNAs
Description: as §1, §2

A549 cells [2] = assay: Reductive glutamine metabolism by isotopic labeling and GC/MS in A549 cells expressing shRNAs; settings: [U-13C5]glutamine, aspartate, malate, fumarate
Description: as §1, §2

[3] = tested on: Hypoxia response element- (HRE-) driven reporter; assay: Hypoxia response element (HRE)-driven reporter in HCT116 cells expressing IDH1-targeting shRNAs; settings: normal culture, hypoxia, or 1 mM DMOG, 18 hours
Description: Luciferase Assays. Subconfluent cells in 6 well plates were co-transfected with 1 μg of a firefly luciferase vector and 50 ng Renilla luciferase vector (pRL-TK; Promega) using Fugene 6 reagent. The ODD-Luciferase and Luciferase vectors were obtained from Addgene and based off of the pcDNA3.1 vector (49). Hypoxia responsive element-luciferase (HRE-Luc) vectors were used as described (50). Approximately 24 hours after transfection, medium was changed and cells were placed under normoxia, hypoxia, or treated with 1 mM dimethyloxalylglycine (DMOG). After 18 hours of treatment, cells were lysed and luciferase activity was determined using the Dual Luciferase Reporter Assay system (Promega) according to the manufacturer's instructions.

A549 cells [4] = assay: 13C Metabolic Flux Analysis (MFA) of A549 cells expressing IDH1-targeting shRNAs, [U-13C5]glutamine tracer
Description: Cell Culture, Isotopic Labeling, and Hypoxia. All cell lines were cultured in Dulbecco's Modified Eagle Medium (DMEM; Mediatech) containing 10% fetal bovine serum (FBS; Invitrogen) and 100 U/ml penicillin/streptomycin (P/S; Mediatech) unless otherwise mentioned. Cell lines were obtained from ATCC unless otherwise noted. The VC3 glioma cell line was provided by Tim Lautenschlaeger (Ohio State University), MDA-MB-231 and HCT116 cell lines were provided by Ferdinando Chiaradonna (University of Milano-Bicocca), MRC5 cells were provided by Stephen Lippard (MIT), SN12C, ACHN, and 786-O cells were provided by Kevin Courtney and Lew Cantley (Harvard Medical School), and MCF10A cells were provided by Joan Brugge (Harvard Medical School), and Huh7 cells were provided by Mike Hemann (MIT). MCF10A cells were cultured in custom DMEM/F12 (Hyclone) containing 5% horse serum, 20 ng/ml EGF, 10 μg/ml insulin, 100 ng/ml cholera toxin, 0.5 mg/ml hydrocortisone, 100 U/ml penicillin/streptomycin, and labeled/unlabeled glucose and glutamine at 18 mM and 2.5 mM, respectively. PRC3, WT8, pTV, and pTR cell lines were subcloned from the 786-O cell line as previously described (42, 43). For isotopic labeling experiments, cells were cultured in 6 well plates in glucose- and glutamine-free DMEM (Sigma) containing 10% dialyzed FBS (Invitrogen), 100 U/ml P/S, naturally labeled glucose or glutamine, and the appropriate tracer, including [U-^13C5]glutamine (Isotec), [5-^13C]glutamine (C/D/N Isotopes), [1-^13C]glutamine, [U-^13C6]glucose, [1,2-^13C2]glucose (all from Cambridge Isotope Labs). Steady state labeling of organic and amino acids was accomplished by culturing subconfluent cells in tracer medium for 24 hours. Labeling of fatty acids for Isotopomer Spectral Analysis (USA) was conducted over 3-5 days of culture in an excess of tracer medium (3-4 ml/well in a 6 well plate) to prevent nutrient depletion. Hypoxic culture was conducted by feeding a custom mixture of 1% O2, 5% CO2, and 94% N2 to a standard incubator controlled at 5% CO2. HEPES (Mediatech) was added to the culture medium at 20 mM to maintain pH between normoxic and hypoxic cultures. The internal gas content was monitored using Fyrite gas analyzers (Bacharach) for CO2 and O2. O2 levels were confirmed at 1.5-2% during hypoxic culture.
Stable cell cultures with decreased IDH1 and IDH2 expression were generated via lentiviral-mediated shRNA expression. pLKO.1 lentiviral vectors targeting IDH1 with shRNA sequences of […] TT (IDH1a; TRCN0000027298; SEQ ID NO:1) and […] TT (IDH1b; TRCN0000027289; SEQ ID NO:2), IDH2 with shRNA sequence […] TT (TRCN0000027225; SEQ ID NO:3). For controls, either non-targeting control shRNA (SHC002; Sigma) or pLKO.1 scrambled control vector (44)(Addgene) were used. pLKO.1 vector targeting ARNT with shRNA sequence […] TT (TRCN0000003819; SEQ ID NO:4) was obtained from Open Biosystems.
HEK293T cells were co-transfected with pLKO.1 vectors and packaging plasmids to produce lentivirus. Filtered supernatants were used for infection, and cells were selected with puromycin (2 μg/ml) for at least two passages before initiating tracer and flux experiments.
Metabolite Extraction and Gas Chromatography/Mass Spectrometry (GC/MS) Analysis. At the conclusion of culture, cells were rinsed with 1 ml ice cold PBS and quenched with 0.4 ml ice cold methanol. An equal volume of water was added, and cells were collected in tubes by scraping with a pipette. One volume of ice cold chloroform was added to each tube, and the extracts were vortexed at 4° C. for 30 minutes. Samples were centrifuged at 14,000 g for 5 minutes at room temperature. For analysis of polar metabolites, the aqueous phase was transferred to a new tube for evaporation under airflow. For ISA experiments, the non-polar fraction was collected and evaporated under airflow. In some ISA experiments, cells were trypsinized, counted, and pelleted prior to lipid extraction as described above. […]

[5] = Anaplerotic reactions, exchange flux
[6] = Anaplerotic reactions, net flux
[7] = Pentose Phosphate Pathway, exchange flux
[8] = Pentose Phosphate Pathway, net flux

## CCGGCGAATCATTTGGGAATTGATTCTCGAGAATCAATTCCCAAATGATTCGTTT TT (CCGGCGAATCATTTGGGAATTGATTCTCGAGAATCAATTCCCAAATGATTCGTTTTT; expressed or natural sequence) [IDH1b, pLKO.1 lentiviral vector shRNA targeting IDH1]
HCT116 colon carcinoma
  reductive carboxylation flux (M1 label from [1-13C]glutamine): reduces reductive carboxylation flux
143B osteosarcoma
  reductive carboxylation flux: reduces reductive carboxylation flux
[1]
  reductive carboxylation flux (M1 label from [1-13C]glutamine): reduces reductive carboxylation flux
A549 cells [2]
  M3 mass isotopomers derived from [U-13C5]glutamine (reductive carboxylation): decrease in reductive carboxylation
[3]
  HRE-driven reporter levels (hypoxia signaling): does not increase hypoxia signaling and stabilization
A549 cells [4]; Amino acids, exchange flux
  Flux Pyr.m <−> Ala: 0.00 fmol/cell*hr
A549 cells [4]; Amino acids, net flux
  Flux Gln −> Glu: 24.57 fmol/cell*hr
  Flux Gln.x −> Gln: 25.06 fmol/cell*hr
  Flux Glu −> Glu.x: 19.91 fmol/cell*hr
  Flux Pyr.m −> Ala: 0.42 fmol/cell*hr
A549 cells [4]; [5]
  Flux Glu <−> Akg: 442.50 fmol/cell*hr
  Flux Mal <−> Pyr.m + CO2: 1.64 fmol/cell*hr
  Flux Oac <−> Asp: 372.30 fmol/cell*hr
A549 cells [4]; [6]
  Flux Glu −> Akg: 4.16 fmol/cell*hr
  Flux Mal −> Pyr.m + CO2: 3.56 fmol/cell*hr
  Flux Oac −> Asp: 0.60 fmol/cell*hr
  Flux Pyr.m + CO2 −> Oac: 0.00 fmol/cell*hr
A549 cells [4]; Biomass, net flux
  Flux 0.6*Asp + 0.5*Glu + 0.42*Ala + 0.5*Gln −> Biomass: 1.00 fmol/cell*hr
  Flux AcCoA.c −> Fatty acids: 11.28 fmol/cell*hr
  Flux Cit −> AcCoA.c + Oac: 11.28 fmol/cell*hr
  Flux P5P −> NTP: 0.50 fmol/cell*hr
A549 cells [4]; Dilution/Mixing
  Flux 0*Pyr.c −> Pyr.mnt: 0.82 fmol/cell*hr
  Flux 0*Pyr.m −> Pyr.mnt: 0.18 fmol/cell*hr
  Flux 0*Suc −> Suc.mnt: 0.85 fmol/cell*hr
  Flux Suc.d −> Suc.mnt: 0.15 fmol/cell*hr
A549 cells [4]; Dilution/Mixing, exchange flux
  Flux Pyr.c <−> Pyr.m: 49.63 fmol/cell*hr
A549 cells [4]; Dilution/Mixing, net flux
  Flux Pyr.c −> Pyr.m: 13.19 fmol/cell*hr
A549 cells [4]; Glycolysis, exchange flux
  Flux DHAP <−> GAP: 550.40 fmol/cell*hr
  Flux G6P <−> F6P: 0.00 fmol/cell*hr
  Flux GAP <−> 3PG: 160.00 fmol/cell*hr
  Flux Pyr.c <−> Lac: 695.70 fmol/cell*hr
A549 cells [4]; Glycolysis, net flux
  Flux 3PG −> Pyr.c: 217.80 fmol/cell*hr
  Flux DHAP −> GAP: 107.60 fmol/cell*hr
  Flux F6P −> DHAP + GAP: 107.60 fmol/cell*hr
  Flux G6P −> F6P: 102.60 fmol/cell*hr
  Flux GAP −> 3PG: 217.80 fmol/cell*hr
  Flux Glc.x −> G6P: 110.60 fmol/cell*hr
  Flux Lac −> Lac.x: 204.60 fmol/cell*hr
  Flux Pyr.c −> Lac: 204.60 fmol/cell*hr
A549 cells [4]; [7]
  Flux P5P + E4P <−> F6P + GAP: 1.9E+06 fmol/cell*hr
  Flux P5P + P5P <−> S7P + GAP: 6.3E+07 fmol/cell*hr
  Flux S7P + GAP <−> F6P + E4P: 1.1E+06 fmol/cell*hr
A549 cells [4]; [8]
  Flux G6P −> P5P + CO2: 8.01 fmol/cell*hr
  Flux P5P + E4P −> F6P + GAP: 2.50 fmol/cell*hr
  Flux P5P + P5P −> S7P + GAP: 2.50 fmol/cell*hr
  Flux S7P + GAP −> F6P + E4P: 2.50 fmol/cell*hr
A549 cells [4]; TCA Cycle, exchange flux
  Flux Fum <−> Mal: 1.6E+07 fmol/cell*hr
  Flux Mal <−> Oac: 124.70 fmol/cell*hr
  Flux Suc <−> Fum: 0.29 fmol/cell*hr
A549 cells [4]; TCA Cycle, exchange flux (reductive IDH flux)
  Flux Cit <−> Akg + CO2: 2.39 fmol/cell*hr
A549 cells [4]; TCA Cycle, net flux
  Flux AcCoA.m + Oac −> Cit: 16.33 fmol/cell*hr
  Flux Akg −> Suc + CO2: 9.21 fmol/cell*hr
  Flux Fum −> Mal: 9.21 fmol/cell*hr
  Flux Mal −> Oac: 5.65 fmol/cell*hr
  Flux Pyr.m −> AcCoA.m + CO2: 16.33 fmol/cell*hr
  Flux Suc −> Fum: 9.21 fmol/cell*hr
A549 cells [4]; TCA Cycle, net flux (IDH)
  Flux Cit −> Akg + CO2: 5.05 fmol/cell*hr
